Measurements as given in article PMC7503767, “Alkoxyamines Designed as Potential Drugs against Plasmodium and Schistosoma Parasites” (Molecules, 2020).
Where two headings read alike, the source gives them in different places.

How the values were obtained:
Adult S. mansoni = test: In vitro antischistosomal activity on adult worms; format: cell-based, Schistosoma mansoni; details: for Time for the death of 100% worms / Mean (±SD) survival time – Adult S. mansoni: 100 µg/mL; for Mean (±SD) survival time – Adult S. mansoni: observation up to 8 h (Table S1)
Text: The NMRI strain of Schistosoma mansoni was used for the experimentations. The parasite was maintained on an albino variety of Biomphalaria glabrata from Brazil (intermediate host) and in Golden Hamsters, Mesocricetus auratus (Janvier Labs, Le Genest-Saint-Isle, France). Detailed methods, for mollusk and hamster infections and for parasite recovery, were previously described.
Adult worms were recovered between 42 and 47 days after infection by hepatic perfusion technique. Twenty to fifty adult worms were disposed in 12-well Falcon® plate containing 2 mL of RPMI 1640 (supplemented with L-glutamine and Hepes 25 mM) and stored in an incubator chamber (37 °C; 5% CO2). Drug preparation started with dissolution of the drug in DMSO to give a 100 mg/mL stock solution. The dilution was complemented with Tween 80 and RPMI in order to obtain the following final ratio dilution: RPMI 1640/Tween 80/DMSO, 1000/0.95/3.8, v/v/v. The drug solution was added to Falcon plates that contained adult worms. The S. mansoni cultures were then incubated with each drug at a final concentration of 100 µg/mL. Positive control was carried out with a solution of praziquantel (Merck KGaA, Darmstadt, Germany) at a concentration of 100 µg/mL. Negative control was carried out with the same RPMI 1640/Tween 80/DMSO solution, but without any drug. Each test was performed in duplicate. Every hour, moving worms were counted in order to define the percentage of survivors. Parasites showing no body contractions during a 30 s observation were considered as dead. Observations were extended to 8 h. Mean survival times (± standard deviation) were calculated for each drug using Kaplan–Meier survival analyses.

[1] = Homolysis of the NO–C bond measured by EPR
Method: Homolysis rate constants kd’ were measured by EPR and estimated using Equation (1) as reported many times in the literature. Further, Ea and kd were estimated using Equation (2). (1) ln([nitroxide]∞−[nitroxide]t/[nitroxide]∞)=−kd·t (2) Ea=−RT ln([…] kd′ )

[2] = tested on: P. falciparum chloroquine-resistant strain FcB1-Columbia; test: Antiplasmodial screen at 10 µM and chemosensitivity assay (SYBR Green I), FcB1-Columbia; format: cell-based, Plasmodium falciparum; details: FcB1-Columbia strain, read-out: IC50 on P. falciparum
[3] = adult S. mansoni, observation up to 8 h

CCOP(=O)(OCC)C(N(OC(C)c1cn(C)c[n+]1C)C(C)(C)C)C(C)(C)C.[I-] (stereo not drawn) [(RR/SS)-1r]
Time for the death of 100% worms (Adult S. mansoni; [3]): 4 h

CCOP(=O)(OCC)C(N(OC(C)c1ccc(C)cc1)C(C)(C)C)C(C)(C)C (stereo not drawn) [(RR/SS)-1s]
Mean (±SD) survival time – Adult S. mansoni (Adult S. mansoni): > 8 h
Time for the death of 100% worms (Adult S. mansoni; [3]): > 8 h

CCOP(=O)(OCC)C(N(OC(C)c1cc(-c2ccccn2)nc(-c2ccccn2)c1)C(C)(C)CO[Si](C)(C)C(C)(C)C)C(C)(C)C (stereo not drawn) [(RR/SS)-6F, Diethyl(1-((1-([2,2′:6′,2′′-terpyridin]-4′-yl)ethoxy)(1-((tert-butyldimethylsilyl)oxy)-2-methylpropan-2-yl)amino)-2,2-dimethylpropyl)phosphonate]
activation energy Ea ([1]; t-BuPh): 29.59 kcal/mol
half-lifetime t1/2 at 37 °C ([1]; t-BuPh): 24 days
re-estimated homolysis rate constant kd at 120 °C ([1]; t-BuPh): 8.5 10^−3 s^−1
homolysis rate constant kd′ ([1]; t-BuPh, 81 °C): 1.4 10^−4s^−1

CCOP(=O)(OCC)C(N(OC(C)c1cc(-c2ccccc2)cc(-c2ccccc2)c1)C(C)(C)CO[Si](C)(C)C(C)(C)C)C(C)(C)C (stereo not drawn) [(RR/SS)-6G, Diethyl(1-((1-([1,1′:3′,1′′-terphenyl]-5′-yl)ethoxy)(1-((tert-butyldimethylsilyl)oxy)-2-methylpropan-2-yl)amino)-2,2-dimethylpropyl)phosphonate]
half-life ([1]; half-lifetime t1/2 at 37 °C, t-BuPh): 33.4 days
activation energy Ea ([1]; t-BuPh): 30 kcal/mol
re-estimated homolysis rate constant kd at 120 °C ([1]; t-BuPh): 5.10 10^−3 s^−1
homolysis rate constant kd′ ([1]; t-BuPh, 92 °C): 2.7 10^−4s^−1

CCOP(=O)(OCC)C(N(OC(C)c1cccnc1)C(C)(C)C)C(C)(C)C (stereo not drawn) [(RS/SR)-1b]
IC50 ([2]; listed as (RS/SR)-1B): > 10 µM

CCOP(=O)(OCC)C(N(OC(CN)c1ccncc1)C(C)(C)C)C(C)(C)C (stereo not drawn) [(RS/SR)-1f]
IC50 [2]: > 10 µM

CCOP(=O)(OCC)C(N(OC(C)n1cc[n+](C)c1)C(C)(C)C)C(C)(C)C.Cc1ccc(S(=O)(=O)[O-])cc1 (stereo not drawn) [(RS/SR)-1n]
Mean (±SD) survival time – Adult S. mansoni (Adult S. mansoni): > 8 h
Time for the death of 100% worms (Adult S. mansoni; [3]): > 8 h

CCOP(=O)(OCC)C(N(OC(C)c1cn(C)cn1)C(C)(C)C)C(C)(C)C (stereo not drawn) [(RS/SR)-1q]
Mean (±SD) survival time – Adult S. mansoni (Adult S. mansoni): 1.3 ± 0.2 h
Time for the death of 100% worms (Adult S. mansoni; [3]): 2 h

CCOP(=O)(OCC)C(N(OC(C)c1cn(C)c[n+]1C)C(C)(C)C)C(C)(C)C.[I-] (stereo not drawn) [(RS/SR)-1r]
Time for the death of 100% worms (Adult S. mansoni; [3]): 6 h

CCOP(=O)(OCC)C(N(OC(C)c1ccc(C)cc1)C(C)(C)C)C(C)(C)C (stereo not drawn) [(RS/SR)-1s]
Mean (±SD) survival time – Adult S. mansoni (Adult S. mansoni): 3.3 ± 0.1 h
Time for the death of 100% worms (Adult S. mansoni; [3]): 4 h

CCOP(=O)(OCC)C(N(OC(C)c1cc(-c2ccccc2)cc(-c2ccccc2)c1)C(C)(C)CO)C(C)(C)C (stereo not drawn) [(RS/SR)-2G, Diethyl(1-((1-([1,1′:3′,1′′-terphenyl]-5′-yl)ethoxy)(1-hydroxy-2-methylpropan-2-yl)amino)-2,2-dimethylpropyl)phosphonate]
Mean (±SD) survival time – Adult S. mansoni (Adult S. mansoni): > 8 h
Time for the death of 100% worms (Adult S. mansoni; [3]): > 8 h
activation energy Ea ([1]; MeOH/water 2:1 pH = 7.0): 29.18 kcal/mol
half-lifetime t1/2 at 37 °C ([1]; MeOH/water 2:1 pH = 7.0): 12.7 days
re-estimated homolysis rate constant kd at 120 °C ([1]; MeOH/water 2:1 pH = 7.0): 14.4 10^−3 s^−1
homolysis rate constant kd′ ([1]; MeOH/water 2:1 pH = 7.0, 81 °C): 2.3 10^−4s^−1
activation energy Ea ([1]; t-BuPh): 28.87 kcal/mol
half-lifetime t1/2 at 37 °C ([1]; t-BuPh): 7.5 days
re-estimated homolysis rate constant kd at 120 °C ([1]; t-BuPh): 21.6 10^−3 s^−1
homolysis rate constant kd′ ([1]; t-BuPh, 81 °C): 3.7 10^−4s^−1

CCOP(=O)(OCC)C(N(OC(C)c1ccccn1)C(C)(C)CO)C(C)(C)C (stereo not drawn) [(RS/SR)-2c]
IC50 [2]: > 10 µM

CCOP(=O)(OCC)C(N(OC(C)c1ccccc1)C(C)(C)C(=O)O)C(C)(C)C (stereo not drawn) [(RS/SR)-4z]
Mean (±SD) survival time – Adult S. mansoni (Adult S. mansoni): > 8 h
Time for the death of 100% worms (Adult S. mansoni; [3]): > 8 h

CCOP(=O)(OCC)C(N(OC(C)c1ccccc1)C(C)(C)C(=O)OC)C(C)(C)C (stereo not drawn) [(RS/SR)-5z]
Mean (±SD) survival time – Adult S. mansoni (Adult S. mansoni): > 8 h
Time for the death of 100% worms (Adult S. mansoni; [3]): > 8 h

CCOP(=O)(OCC)C(N(OC(C)c1cc(-c2ccccn2)nc(-c2ccccn2)c1)C(C)(C)CO[Si](C)(C)C(C)(C)C)C(C)(C)C (stereo not drawn) [(RS/SR)-6F, Diethyl(1-((1-([2,2′:6′,2′′-terpyridin]-4′-yl)ethoxy)(1-((tert-butyldimethylsilyl)oxy)-2-methylpropan-2-yl)amino)-2,2-dimethylpropyl)phosphonate]
activation energy Ea ([1]; t-BuPh): 29.09 kcal/mol
half-lifetime t1/2 at 37 °C ([1]; t-BuPh): 10 days
re-estimated homolysis rate constant kd at 120 °C ([1]; t-BuPh): 16.3 10^−3 s^−1
homolysis rate constant kd′ ([1]; t-BuPh, 81 °C): 2.7 10^−4s^−1

CCOP(=O)(OCC)C(N(OC(C)c1cc(-c2ccccc2)cc(-c2ccccc2)c1)C(C)(C)CO[Si](C)(C)C(C)(C)C)C(C)(C)C (stereo not drawn) [(RS/SR)-6G, Diethyl(1-((1-([1,1′:3′,1′′-terphenyl]-5′-yl)ethoxy)(1-((tert-butyldimethylsilyl)oxy)-2-methylpropan-2-yl)amino)-2,2-dimethylpropyl)phosphonate]
activation energy Ea ([1]; t-BuPh): 29.8 kcal/mol
re-estimated homolysis rate constant kd at 120 °C ([1]; t-BuPh): 6.50 10^−3 s^−1
homolysis rate constant kd′ ([1]; t-BuPh, 92 °C): 3.5 10^−4s^−1

O=C(C1CCCCC1)N1CC(=O)N2CCc3ccccc3C2C1 (stereo not drawn) [Praziquantel, praziquantel, reference compound]
Mean (±SD) survival time – Adult S. mansoni (Adult S. mansoni): 1.0 ± 0.05 h
Time for the death of 100% worms (Adult S. mansoni; [3]): 1 h
S. mansoni Mean Survival Time (Adult S. mansoni; adult S. mansoni, single dose 100 µg/mL, observation up to 8 h): 1.0 ± 0.05 h
